In ChEMBL document CHEMBL6078705 (Bioorg Med Chem, 2025):
Calls of active or inactive are those of the source. The rule behind the calls is not given here.

Columns and labels:
[1] = Inhibition of bovine brain tubulin polymerization preincubated for 15 mins followed by GTP addition and measured after 20 mins by spectrophotometric analysis; design: species or system Bos taurus
MCF7 = assay: Cytotoxicity against human MCF7 cells assessed as cell growth inhibition; type: functional
MDA-MB-231 = assay: Cytotoxicity against human MDA-MB-231 cells assessed as cell growth inhibition incubated for 96 hrs by SRB assay; type: functional
Tubulin (Homo sapiens) = Tubulin (Homo sapiens) (UniProt P68371+Q9H4B7+P0DPH7+P68366+Q13509+Q71U36+P04350+Q3ZCM7+P07437+P68363+Q9BQE3+Q6PEY2+Q13885+Q9BVA1+Q9BUF5); assay: Inhibition of [3H]Colchicine binding to tubulin (unknown origin) at 5 uM incubated for 10 mins in presence of GTP by Beckman scintillation counter relative to control; type: protein-complex assay
[2] = Toxicity in female syngenic BALB/c mouse implanted with orthotropic RENCA-Luc cells assessed as animal death at 50 to 100 mg/kg, ip measured after 24 hrs; type: organism-based; details: in vivo, dose 50-100 mg/kg
Mus musculus [3] = assay: Vascular disrupting agent in female syngenic BALB/c mouse implanted with orthotropic RENCA-Luc cells assessed as reduction in bioluminescence imaging signal at 50 mg/kg, ip measured at 4 hrs by imaging analysis relative to control; type: functional; design: scale not given: the % may be the effect or the level left
Mus musculus [4] = assay: Vascular disrupting agent in female syngenic BALB/c mouse implanted with orthotropic RENCA-Luc cells assessed as reduction in bioluminescence imaging signal at 50 mg/kg, ip measured at 24 hrs by imaging analysis; type: functional, organism-based
Mus musculus [5] = assay: Vascular disrupting agent in female syngenic BALB/c mouse implanted with orthotropic RENCA-Luc cells assessed as reduction in bioluminescence imaging signal at 100 mg/kg, ip measured at 4 hrs by imaging analysis relative to control; type: functional; design: scale not given: the % may be the effect or the level left
Mus musculus [6] = assay: Vascular disrupting agent in female syngenic BALB/c mouse implanted with orthotropic RENCA-Luc cells assessed as reduction in bioluminescence imaging signal at 100 mg/kg, ip measured at 24 hrs by imaging analysis; type: functional, organism-based
Mus musculus [7] = assay: Vascular disrupting activity in female BALB/c mouse implanted with orthotropic 4T1-Luc cells assessed as reduction in bioluminescence imaging signal at 20 mg/kg, ip measured at 4 hrs by imaging analysis; type: functional, organism-based
Mus musculus [8] = assay: Vascular disrupting activity in female BALB/c mouse implanted with orthotropic 4T1-Luc cells assessed as reduction in bioluminescence imaging signal at 20 mg/kg, ip measured at 24 hrs by imaging analysis relative to control; type: functional; design: scale not given: the % may be the effect or the level left
Mus musculus [9] = assay: Vascular disrupting activity in female BALB/c mouse implanted with orthotropic 4T1-Luc cells assessed as reduction in bioluminescence imaging signal at 50 mg/kg, ip measured at 4 hrs by imaging analysis relative to control; type: functional; design: scale not given: the % may be the effect or the level left
[10] = Toxicity in female BALB/c mouse implanted with orthotropic 4T1-Luc cells assessed as animal death at >50 mg/kg, ip measured within 24 hrs; type: organism-based; details: in vivo

inhibition (Tubulin (Homo sapiens)) [%]	SMILES	IC50 [1] [nM]	GI50 (MCF7) [nM]	GI50 (MDA-MB-231) [nM]	further results
	COc1ccc(-c2[nH]c3c(OC)c(OC)c(OC)cc3c2C(=O)c2cc(OC)c(OC)c(OC)c2)cc1O	> 20000	> 5000		
	COc1ccc(/C=C\c2cc(OC)c(OC)c(OC)c2)cc1O [COMBRETASTATIN A4]	910	9.5	1.7	
80	COc1ccc2c(C(=O)c3cc(Cl)cc(Cl)c3)c(-c3ccc(OC)c(O)c3)[nH]c2c1	740	240	133	
	COc1ccc(-c2[nH]c3c(OC)c(OC)ccc3c2C(=O)c2cc(OC)c(OC)c(OC)c2)cc1O	760	3.5	14	
	COc1ccc2c(C(=O)c3c(F)c(F)c(F)c(F)c3F)c(-c3ccc(OC)c(O)c3)[nH]c2c1	> 20000	> 5000		
33	COc1cccc(C(=O)c2c(-c3ccc(OC)c(O)c3)[nH]c3cc(OC)ccc23)c1	4200	490	537	
25	COc1ccc2c(C(=O)c3cccc(F)c3)c(-c3ccc(OC)c(O)c3)[nH]c2c1	1600	2500	7110	
	COc1ccc(-c2[nH]c3c(O)c(OC)ccc3c2C(=O)c2cc(OC)c(OC)c(OC)c2)cc1	860	6	170	
	COc1ccc(-c2[nH]c3cc(OC)c(OC)c(OC)c3c2C(=O)c2cc(OC)c(OC)c(OC)c2)cc1	> 5000	1500		
69	COc1ccc2c(C(=O)c3cccc(Cl)c3)c(-c3ccc(OC)c(O)c3)[nH]c2c1	450	470	319	
	COc1ccc(-c2[nH]c3c(OC)c(OC)ccc3c2C(=O)c2cc(OC)c(OC)c(OC)c2)cc1OP(=O)([O-])[O-].[Na+].[Na+]				Activity [2]: Non-toxic; Activity (Mus musculus [3]): 15%; Activity (Mus musculus [4]): Active; Little Change Observed Relative To 4 Hrs Compound Treatment; Activity (Mus musculus [5]): 91%; Activity (Mus musculus [6]): Active; Slight Recovery Observed
	COc1cccc(-c2[nH]c3cc(OC)c(OC)c(OC)c3c2C(=O)c2cc(OC)c(OC)c(OC)c2)c1	> 5000	> 5000		
50	COc1ccc2c(C(=O)c3cc(F)cc(F)c3)c(-c3ccc(OC)c(O)c3)[nH]c2c1	820	1500	3170	
	COc1ccc(-c2[nH]c3c(C)c(C)ccc3c2C(=O)c2cc(OC)c(OC)c(OC)c2)cc1O	> 20000	> 5000		
	COc1ccc(-c2[nH]c3c(OP(=O)([O-])[O-])c(OC)ccc3c2C(=O)c2cc(OC)c(OC)c(OC)c2)cc1OC.[Na+].[Na+]				Activity (Mus musculus [7]): inactive; Activity (Mus musculus [8]): 50%; Activity (Mus musculus [9]): 95%; Activity [10]: Toxic

SMILES	inhibition (Tubulin (Homo sapiens)) [%]	IC50 [1] [nM]	GI50 (MCF7) [nM]	GI50 (MDA-MB-231) [nM]	further results
COc1ccc2c(C(=O)c3cc(OC)c(OC)c(OC)c3)c(-c3ccc(OC)c(N)c3)[nH]c2c1	65	430	20	36.9	
COc1ccc2c(C(=O)c3cc(OC)c(OC)c(OC)c3)c(-c3ccc(OC)c(Br)c3)[nH]c2c1	34	1200	413	483	
COc1ccccc1-c1[nH]c2cc(OC)c(OC)c(OC)c2c1C(=O)c1cc(OC)c(OC)c(OC)c1	70	920	85	6980	
COc1ccc2c(C(=O)c3cc(OC)c(OC)c(OC)c3)c(-c3ccc(OC)c([N+](=O)[O-])c3)[nH]c2c1	24	770	120	275	
